# Reference: patent US20050163850A1, “Administration of levodopa and carbidopa” (priority 2003, published 2005)
# Several values for one entry are separate records, joined by “and”; a condition that tells them apart may be missing. Equal values may be shown once. Read-outs that look alike come from different tables or passages of the source.
# What was measured:
# [1] = duodenal, 2 mg levodopa lauryl sulfate/rat (0.85 mg levodopa equivalent/rat), individual rats
# [2] = Intravenous levodopa group of Example 10, levodopa plasma level; type: in vivo; conditions: 0.4 mg levodopa/kg, individual rats 1-3 (Table C)
# Procedure: Another group of rats were treated with levodopa intravenously, at a dose of 0.4 mg/kg.
# [3] = iv, 0.4 mg levodopa/kg, individual rats 1-3 (Table D)
# [4] = with carbidopa; cited from earlier work
# [5] = cited from earlier work
# [6] = after oral administration; cited from earlier work
# [7] = cited from earlier work; remark: listed apart in the source
# in vivo = conditions: rat, plasma, iv, 0.4 mg/kg, Plasma level (levodopa), 0.4 mg levodopa/kg, individual rats 1-3 (Table D)
smiles,measurement,setting,value
"CCCCCCCCCCCCOS(=O)(=O)O.N[C@@H](Cc1ccc(O)c(O)c1)C(=O)O [Levodopa lauryl sulfate, Levodopa-Lauryl Sulfate Complex]",Plasma level (levodopa),[1]; time 0 h,9.42 ng/mL and 8.7 ng/mL and 8.55 ng/mL
same,Plasma level (levodopa),[1]; time 1 h,57.3 ng/mL and 51.3 ng/mL and 43.7 ng/mL
same,Plasma level (levodopa),[1]; time 2 h,21.3 ng/mL and 22 ng/mL and 9.24 ng/mL
same,Plasma level (levodopa),[1]; time 3 h,12 ng/mL and 11.6 ng/mL and 24 ng/mL
same,Plasma level (levodopa),[1]; time 4 h,8.07 ng/mL and 7.45 ng/mL and 19.6 ng/mL
"N[C@@H](Cc1ccc(O)c(O)c1)C(=O)O [Levodopa, (−)-L-(alpha)-amino-(beta)-(3,4-dihydroxybenzene) propanoic acid]",Plasma level (levodopa),[2]; time 0 h,0 ng/mL
same,Plasma level (levodopa),[2]; time 0.033 h,336 ng/mL and 247 ng/mL and 690 ng/mL
same,Plasma level (levodopa),[2]; time 0.5 h,16 ng/mL and 11.4 ng/mL and 41.6 ng/mL
same,Plasma level (levodopa),[2]; time 1 h,7.34 ng/mL and 11.5 ng/mL and 18.2 ng/mL
same,Plasma level (levodopa),[2]; time 1.5 h,6.51 ng/mL and 0 ng/mL and 13.8 ng/mL
same,Plasma level (levodopa),[2]; time 2 h,0 ng/mL and 5.82 ng/mL and 8.23 ng/mL
same,Plasma level (levodopa),[2]; time 3 h,0 ng/ml (2×) and 5.53 ng/ml
same,concentration at 0 h,"[2]; Sprague-Dawley, rat, plasma, 0.4 mg/kg, time 0 h",0 ng/mL
same,Plasma level (levodopa),[3]; time 0 h,0 ng/mL
same,Plasma level (levodopa),[3]; time 0.033 h,336 ng/mL and 247 ng/mL and 690 ng/mL
same,Plasma level (levodopa),[3]; time 0.5 h,16 ng/mL and 11.4 ng/mL and 41.6 ng/mL
same,Plasma level (levodopa),[3]; time 1 h,7.34 ng/mL and 11.5 ng/mL and 18.2 ng/mL
same,Plasma level (levodopa),[3]; time 1.5 h,6.51 ng/mL and 0 ng/mL and 13.8 ng/mL
same,Plasma level (levodopa),[3]; time 2 h,0 ng/mL and 5.82 ng/mL and 8.23 ng/mL
same,Plasma level (levodopa),[3]; time 3 h,0 ng/ml (2×) and 5.53 ng/ml
same,plasma half-life of levodopa,[4],1.5 h
same,average intraindividual coefficient of variation for the plasma levodopa concentrations,[5]; after oral therapy (sustained-release tablets),34%
same,average intraindividual coefficient of variation for the plasma levodopa concentrations,"[5]; during continuous intestinal infusion, p<0.01",14%
same,time within which practically all absorption of levodopa occurs,[6],≤ 4 h
same,solubility in water,[7],slightly soluble in water
same,concentration at 0 h,in vivo,0 ng/mL
"C[C@@](Cc1ccc(O)c(O)c1)(NN)C(=O)O [Carbidopa, (−)-L-((alpha)-hydrazino-((alpha)-methyl-(beta)-(3,4-dihydroxybenzene)propanoic acid monohydrate]",solubility in water,[7],slightly soluble in water
